According to a melting point compilation (Tetko et al.):

melting point [°C]	SMILES
119 to 121	CC(=O)c1cccc(OCC(=O)O)c1
120 to 123	Cc1c(NC(=O)CSc2ccccc2C(=O)O)c(=O)n(-c2ccccc2)n1C
58 to 60	CN(C)C(=O)Cn1ccc(N)n1
138 to 140	O=C(O)c1ccn(-c2ccccc2)n1
141 to 143	Clc1ccc2c(n1)NCC2
202 to 204	Cc1cc(C)n(CCCCl)n1
65 to 67	CC(=O)NC1CCCNC1 (configuration not stated)
127 to 129	O=Cc1ccc(-n2cncn2)c(F)c1
126 to 128	NS(=O)(=O)c1cnn(CCC(=O)O)c1
142 to 144	Clc1cc(Cl)nc(-c2ccccn2)n1
67 to 69	Cc1cc(C)cc(N(CCC#N)C(=O)CCl)c1
136 to 138	Cc1ccc(CN2CCSCC2)cc1N
110 to 112	Cn1c(Cl)cnc1CO
100 to 102	Cc1cc(N)nn1-c1ccc(Cl)cc1
260 to 262	Nc1nnc(-c2ccc(Cl)cc2)o1
87 to 89	O=C(O)CCSc1ccc2c(c1)OCCO2
186 to 188	Cn1ccnc1C(O)(CC(=O)O)C(F)(F)F (configuration not stated)
199 to 201	O=C(O)c1sccc1-c1ccc(F)cc1
75 to 77	CCOC(=O)c1nc(Br)sc1NC
87 to 89	Cc1ccc(C)n1Cc1ccccc1Cl
109 to 111	COC(=O)c1c(NC(=O)OC(C)(C)C)c[nH]c1C
210 to 212	COc1ccccc1NS(=O)(=O)c1ccc2oc(N)nc2c1
39 to 41	Fc1cccc(F)c1-n1ccc(CCl)n1
78 to 80	O=C(c1cnc(Cl)c(Cl)c1)N1CCCCC1
104 to 106	CCCCCCCC(=O)NCC(=O)O
138 to 140	O=C(O)c1sccc1S(=O)(=O)NCc1cccs1

melting point [°C]	SMILES
89 to 91	CN(C)C(=O)c1cnc(Cl)c(Cl)c1
102 to 104	CN(C)CCN1C(=O)C(=O)c2cc(Br)ccc21
82 to 84	CCS(=O)(=O)Nc1ccc(S(=O)(=O)Cl)c(C)c1
205 to 207	Sc1nnc(-c2ccc[nH]2)o1
75 to 77	CN(CC(=O)N1CCOCC1)C(=O)CCl
119 to 121	Cc1cc(Br)c(C(=O)O)cn1
91 to 93	CC(=O)CC(=O)Nc1cccc(C)c1C
94 to 96	O=C1c2ccccc2S(=O)(=O)N1CCBr
157 to 159	C=CCNC(=O)Nc1ccc(N)cc1
128 to 130	CC(CC(N)=S)n1cc(Cl)cn1 (configuration not stated)
82 to 84	COc1c(F)ccc(F)c1C(=O)O
63 to 65	C=CCNC(=O)CN1CCNCC1
134 to 136	NC(=O)COc1cccc(O)c1
152 to 154	Cc1ccc(S(=O)(=O)N(C)c2ccc(OCC(=O)O)cc2)cc1
91 to 93	NNC(=O)C1CCC1
199 to 201	O=C(O)c1ccc(S(=O)(=O)Cl)c(Cl)c1
135 to 137	Sc1nnc(COc2ccccc2Cl)o1
205 to 207	O=C(O)c1ccnc(N2CCCC2)n1
265 to 267	Cc1ccc(-c2nc(N)sc2CC(=O)O)cc1C
179 to 181	Nn1c(S)nnc1Cc1ccccc1
115 to 117	O=C1COc2ccc(Cl)cc21
224 to 226	c1ccc(-c2nnco2)nc1
105 to 107	Cc1ccc(C(=O)CC#N)s1
73 to 75	CN(CC#N)C(=O)c1ccccc1
166 to 168	NC(=O)N1CC(O)CC1C(=O)O (configuration not stated)
126 to 128	Cc1ccc2[nH]cc(CCC(=O)O)c2c1

melting point [°C]	SMILES
113 to 115	CC(C)(C)NC(=O)Cc1ccc(N)cc1
162 to 164	O=C(O)c1ccc([N+](=O)[O-])[nH]1
214 to 216	O=C(O)c1cnn2c1CCCC2
154 to 156	CC1(C)C(=O)NC(=O)N1CC(N)=O
108 to 110	CNCC(=O)N(C)c1ccccn1
201 to 203	Nc1ccc(CC(=O)N2CCN(c3ccccc3)CC2)cc1
109 to 111	O=C(O)C(F)(F)c1ccc(Cl)c(Cl)c1
154 to 156	CS(=O)(=O)Nc1cc(N)ccc1F
74 to 76	COC(=O)c1cc(Cl)ccc1S(=O)(=O)Cl
239 to 241	Oc1ccc(Sc2ccncc2)cc1
137 to 139	CCOC(=O)c1cnn(-c2nc3ccccc3s2)c1N
84 to 86	O=Cc1ccc(-c2cc(Cl)ccc2Cl)o1
209 to 211	O=c1[nH]c2cc(Br)ccc2o1
111 to 113	Clc1ccnc2ccc(Br)cc12
159 to 161	COC(=O)c1n[nH]c2ccccc12
57 to 59	CCOc1ccc(C(=O)CBr)cc1
118 to 120	Nc1ccc(F)c(NC(=O)c2ccsc2)c1
122 to 124	Cc1n[nH]c(C)c1CCO
225 to 227	O=C1Nc2c(Cl)cc(Br)cc2C1=O
86 to 88	CC(Cl)C(=O)NCC(=O)c1ccccc1 (configuration not stated)
74 to 76	O=C(O)CSCc1cccc(Cl)c1
55 to 57	Nc1ccccc1Cc1ccccc1
40 to 42	Cc1ccc(-c2noc(Cl)n2)cc1
219 to 221	O=C(CCl)Nc1nnc(-c2ccccc2)o1
182 to 184	O=C(Nc1nnc(C2CCCCC2)s1)OCC(F)(F)F
57 to 59	O=[N+]([O-])c1ccc(Cl)c(Br)c1

melting point [°C]	SMILES
192 to 194	CC(C)(C)n1ccnc1S
192 to 194	Cc1cc(C(=O)O)c(C)n1-c1cccnc1
150 to 152	O=C(O)c1ccc(-c2ccccc2OC(F)(F)F)cc1F
259 to 261	Cc1ccc(-c2nc3ccccc3[nH]2)s1
144 to 146	CSc1ccc(Cl)c(C(N)=O)c1
138 to 140	O=C1CC(c2ccccc2)=NN1c1ccccc1
206 to 208	Cc1cccc(-c2nnc(N)[nH]2)n1
269 to 271	O=C(O)c1c[nH]nc1C1CCCCC1
83 to 85	COCc1cc([N+](=O)[O-])ccc1N
107 to 109	COc1ccccc1-c1ccc(C(C)=O)cc1
127 to 129	COc1cc(C2(C(=O)O)CC2)ccc1C
191 to 193	CN(C)C(=O)Nc1ccc(C(=O)O)c(Cl)c1
219 to 221	O=c1[nH]cnc2ccsc12
217 to 219	NC(=O)c1sc2ccccc2c1N
144 to 146	CC(Cl)C(=O)Nc1ccccc1Cc1ccccc1 (configuration not stated)
196 to 198	Nc1noc(-c2ccsc2)n1
293 to 295	C=CCn1c(S)nnc1-c1ccoc1C
63 to 65	CN1CCN(CCOc2ccc(N)cc2)CC1
128 to 130	Cc1cccc(NC(=O)C(C)Cl)c1 (configuration not stated)
144 to 146	COc1ncc(N)cc1C(N)=O
134 to 136	CC(=O)Nc1ccc(C)c(N)c1
49 to 51	Cn1cnnc1CO
71 to 73	CN(C)C(C#N)c1cc[nH]c1 (configuration not stated)

SMILES	melting point [°C]
Cc1nc2n(c1CN1CCNCC1)CCCC2	111 to 113
CC(C)(C)NC(=O)NC(=O)CCl	109 to 112
O=C(O)Cn1cnc([N+](=O)[O-])n1	187 to 189
CCOCCCNC(=O)CCl	25 to 27
CC(=O)c1cc2c(cc1O)OCO2	114 to 116
CS(=O)(=O)Cc1noc(CCl)n1	73 to 75
